Results reported in patent US9615577B2, “Herbicidally active cyclic dione compounds, or derivatives therefor, substituted by a phenyl which has an alkynyl-containing substituent” (Syngenta Limited, priority 2012, dated 2017).

What was measured:
Test in all cases: Biological Example 3 glasshouse assay for herbicidal activity, using various adjuvant systems, post-emergence
Format in all cases: in vivo
[1] = tested on: Eleusine indica (ELEIN); details: 8 g/ha, 14 DAA, adjuvant system per compound
Protocol: (§1) Post-emergence foliar spray application, 200 L/ha, usually one or two replicates for the weeds (depending on application rate), and two replicates for soybean.
(§2) Standard warm conditions (tropical), in glasshouse. Specifically, the glasshouse bay conditions are 24° C./18° C. day/night; 16/8 hours light/dark; 65% humidity.
(§3) The herbicidal application takes place at the following growth stages for plants which include inter alia one or more of the following plants (usually the herbicidal application takes place on at least the following six plants: DIGSA, ELEIN, SETFA, GLXMA Nikko, and GLXMA TMG133, and either BRADC or BRAPP):
Eleusine indica (ELEIN)—growth stage 12 or 13
(§4) Each test Compound is applied with one of the following adjuvant systems (all percentages are final concentrations in the aqueous spray mixture):
(§5) Adjuvant system 1: 0.5% v/v Adigor™ *, 1.0% v/v AMS (ammonium sulphate) and 12.5% v/v IPA (isopropyl alcohol).
(§6) Adjuvant system 2: 0.5% v/v Adigor™ * and 12.5% v/v IPA (isopropyl alcohol).
(§7) Adjuvant system 3: 0.5% v/v Hexamoll™ DINCH **, 1.0% v/v AMS (ammonium sulphate) and 12.5% v/v IPA (isopropyl alcohol).
(§8) Seeds of the weed plants, typically including inter alia [either Brachiaria decumbens (BRADC) or Brachiaria platyphylla (BRAPP)], Digitaria sanguinalis (DIGSA), Eleusine indica (ELEIN), Setaria faberi (SETFA) are sown in seed trays (troughs) containing clay loam soil (pH 7.0, 2.2% organic matter, “Trough Mix A”); and soybean seed is sown in pots containing the same soil with 3 soybean seedlings per pot. The plants are sprayed with the test herbicide when they reach the growth stages mentioned above.
(§9) The test herbicidal solutions are prepared by mixing the appropriate aliquots of the test substance(s) and the adjuvant system indicated above *** in deionised water to give the desired treatment concentration. […]
(§10) A visual assessment of the % herbicidal damage is made 7 and 14 Days After herbicide Application (DAA) (or, in a minority of cases, 7 and 15 DAA), and the results are recorded as % visual herbicidal damage where 0%=no damage to plants and 100%=plant totally killed. […]

[2] = tested on: Digitaria sanguinalis (DIGSA); details: 8 g/ha, 14 DAA, 0.5% v/v Adigor + 1.0% v/v AMS + 12.5% v/v IPA
Protocol: as §1, §2, §3
Digitaria sanguinalis (DIGSA)—growth stage 12 or 13
as §4, §5, §6, §7
Seeds of the weed plants, typically including inter alia [either Brachiaria decumbens (BRADC) or Brachiaria platyphylla (BRAPP)], Digitaria sanguinalis (DIGSA), Eleusine indica (ELEIN), Setaria faberi (SETFA) are sown in seed trays (troughs) containing clay loam soil (pH 7.0, 2.2% organic matter, “Trough Mix A”); and soybean seed is sown in pots containing the same soil with 3 soybean seedlings per pot. The plants are sprayed with the test herbicide when they reach the growth stages mentioned above. […]
as §10

[3] = tested on: Glycine max (GLXMA, soybean) cultivar “Nikko”; details: 120 g/ha, 14 or 15 DAA, adjuvant system per compound
Protocol: as §1, §2, §3
Glycine max (GLXMA, soybean) cultivar “Nikko”—growth stage: 1st trifoliate
as §4, §5
Adjuvant system 2: 0.5% v/v Adigor™ * and 12.5% v/v IPA (isopropyl alcohol). […]
as §10

[4] = tested on: Glycine max (GLXMA, soybean) cultivar “TMG133”; details: 120 g/ha, 14 or 15 DAA, adjuvant system per compound
Protocol: as §1, §2, §3
Glycine max (GLXMA, soybean) cultivar “TMG133”—which is Roundup Ready™glyphosate-tolerant soybean cultivar TMG133 (typically available from Monsanto in Brazil)—growth stage: 1st trifoliate.
Each test Compound is applied with one of the following adjuvant systems (all percentages are final concentrations in the aqueous spray mixture): […]
as §10
Glycine max (GLXMA, soybean) cultivar “TMG133” is Roundup Ready™ glyphosate-tolerant soybean cultivar TMG133, and is typically available from Monsanto in Brazil.

[5] = tested on: Setaria faberi (SETFA); details: 8 g/ha, 14 DAA, 0.5% v/v Adigor + 1.0% v/v AMS + 12.5% v/v IPA
Protocol: as §1, §2, §3
Setaria faberi (SETFA)—growth stage 12 or 13
as §4, §5, §6, §7, §8, §9, §10

Row | Structure (SMILES) | percentage control of Eleusine indica (ELEIN) [1] [%] | percentage control of Digitaria sanguinalis (DIGSA) [2] [%] | percentage phytotoxicities on Glycine max (GLXMA, soybean) cultivar “Nikko” [3] [%] | percentage phytotoxicities on Glycine max (GLXMA, soybean) cultivar “TMG133” [4] [%] | percentage control of Setaria faberi (SETFA) [5] [%]
1 | CC#Cc1cc(C)c(C2C(=O)C3CCC(C3)C2=O)c(C)c1 (centres unmarked) [Compound A-5] | 45 | – | – | – | –
2 | CC#Cc1cc(Cl)c(C2C(=O)CC3(CCOCC3)CC2=O)c(OC)c1 [Compound A-20, 9-(2-Chloro-6-methoxy-4-prop-1-ynyl-phenyl)-3-oxa-spiro[5.5]undecane-8,10-dione] | 95 | 100 | 85 | 85 | 98
3 | CC#Cc1cc(C)c(C2C(=O)CC(CCSC)CC2=O)c(C)c1 (centres unmarked) [Compound A-21, 2-(2,6-Dimethyl-4-prop-1-ynyl-phenyl)-5-(2-methylsulfanyl-ethyl)cyclohexane-1,3-dione] | – | – | 85 | 85 | –
